Earlier results on 1 compound are cited in US7087637B2, “Substituted indoles which are PARP inhibitors” (BASF AG, priority 2000, dated 2006).

The conditions of this data set: S. Cuzzocrea et al., Br. J. Pharmacol. 1997, 121, 1065–1074.

The structures appear in SMILES notation.

Regarding `NC(=O)c1cccc(N)c1` [3-aminobenzamide], the “effects in a model of circulatory shock” value was “protective effects”.
